Where a name gives a salt, the structure may show the parent alone.

The target of one data set is T1, recombinant human 5-HT6 receptor (Homo sapiens, UniProt P50406).
T1 construct: expressed in transfected cells; cell membranes used
T1 sequence (P50406 whole entry): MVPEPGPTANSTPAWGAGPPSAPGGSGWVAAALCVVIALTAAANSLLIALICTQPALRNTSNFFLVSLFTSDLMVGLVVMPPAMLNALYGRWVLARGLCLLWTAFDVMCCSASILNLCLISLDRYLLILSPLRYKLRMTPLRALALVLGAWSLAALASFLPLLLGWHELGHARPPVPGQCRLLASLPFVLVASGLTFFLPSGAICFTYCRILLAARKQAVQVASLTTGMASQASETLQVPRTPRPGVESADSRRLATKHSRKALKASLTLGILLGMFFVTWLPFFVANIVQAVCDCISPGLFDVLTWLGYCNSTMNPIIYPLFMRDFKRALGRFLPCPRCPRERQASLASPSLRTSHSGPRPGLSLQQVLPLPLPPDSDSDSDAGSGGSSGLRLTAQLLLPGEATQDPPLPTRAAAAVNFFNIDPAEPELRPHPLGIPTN
As to the kind of experiment: Radioligand binding studies: competition for [3H]LSD binding in membranes of HEK293 cells. Particulars: [3H]LSD (5 nM), HEK293 cell membranes, 60 min at 37° C., pH 7.4. On the procedure:
The pharmacology of the compounds of this invention was determined by art recognized procedures.
The binding activity of compounds of this invention in vitro was determined as follows.
Duplicate determinations of ligand affinity are made by competing for binding of [3H]LSD in cell membranes derived from HEK293 cells stably expressing recombinant human 5-HT6 receptor.
All determinations are made in assay buffer containing 50 mM Tris-HCl, 10 mM MgSO4, 0.5 mM EDTA, 1 mM ascorbic acid, pH 7.4 at 37° C., in a 250 microliter reaction volume. Assay tubes containing [3H] LSD (5 nM), competing ligand, and membrane are incubated in a shaking water bath for 60 min. at 37° C., filtered onto Packard GF-B plates (pre-soaked with 0.3% PEI) using a Packard 96 well cell harvester and washed 3 times in ice cold 50 mM Tris-HCl. Bound [3H] LSD is determined as radioactive counts per minute using Packard TopCount.
Displacement of [3H]LSD from the binding sites was quantified by fitting concentration-binding data to a 4-parameter logistic equation: [formula]
where Hill is the Hill slope, [ligand] is the concentration of competing radioligand and IC50 is the concentration of radioligand producing half-maximal specific binding of radioligand. The specific binding window is the difference between the Bmax and the basal parameters.
The term Ki denotes the equilibrium dissociation constant of an inhibitor or competing ligand from its target. On to `O=S(=O)(c1cc(Cl)ccc1Cl)n1ccc2c(N3CCNCC3)cccc21` [1-(2,5-dichloro-benzenesulfonyl)-4-piperazin-1-yl-1H-indole], for which the Ki was 0.151 nM.

`COc1ccc(OC)c(S(=O)(=O)n2ccc3c(N4CCNCC4)cccc32)c1` [1-(2,5-dimethoxy-benzenesulfonyl)-4-piperazin-1-yl-1H-indole]: the inhibition constant (Ki) is 0.933 nM.

As to `CS(=O)(=O)c1ccc(F)c(S(=O)(=O)n2ccc3c(N4CCNCC4)cccc32)c1` [1-(2-fluoro-5-methanesulfonyl-benzenesulfonyl)-4-piperazin-1-yl-1H-indole], the inhibition constant (Ki) was 13.8 nM.

For the molecule `O=S(=O)(c1ccccc1F)n1ccc2c(N3CCNCC3)cccc21` [1-(2-fluoro-benzenesulfonyl)-4-piperazin-1-yl-1H-indole], the inhibition constant Ki is 0.0525 nM.

With `CS(=O)(=O)c1ccccc1S(=O)(=O)n1ccc2c(N3CCNCC3)cccc21` [1-(2-methanesulfonyl-benzenesulfonyl)-4-piperazin-1-yl-1H-indole], the Ki is 16.6 nM.

In the case of `O=S(=O)(c1cc(Cl)cc(Cl)c1)n1ccc2c(N3CCNCC3)cccc21` [1-(3,5-Dichloro-benzenesulfonyl)-4-piperazin-1-yl-1H-indole], the Ki was 0.372 nM.

For `CS(=O)(=O)c1cc(Br)cc(S(=O)(=O)n2ccc3c(N4CCNCC4)cccc32)c1` [1-(3-bromo-5-methanesulfonyl-benzenesulfonyl)-4-piperazin-1-yl-1H-indole], the Ki was 7.59 nM.

In the case of `O=S(=O)(c1cccc(Cl)c1)n1ccc2c(N3CCNCC3)cccc21` [1-(3-chloro-benzenesulfonyl)-4-piperazin-1-yl-1H-indole], the inhibition constant (Ki) was 0.11 nM.

Turning to `CCS(=O)(=O)c1cccc(S(=O)(=O)n2ccc3c(N4CCNCC4)cccc32)c1` [1-(3-ethanesulfonyl-benzenesulfonyl)-4-piperazin-1-yl-1H-indole], the Ki is 1.55 nM.

Turning to `O=S(=O)(c1cccc(F)c1)n1ccc2c(N3CCNCC3)cccc21` [1-(3-fluoro-benzenesulfonyl)-4-piperazin-1-yl-1H-indole], the inhibition constant (Ki) was 0.155 nM.

Consider `CS(=O)(=O)c1cccc(S(=O)(=O)n2ccc3c(N4CCNCC4)cccc32)c1` [1-(3-methanesulfonyl-benzenesulfonyl)-4-piperazin-1-yl-1Hindole], for which the inhibition constant Ki was 2.69 nM.

As for `COc1cccc(S(=O)(=O)n2ccc3c(N4CCNCC4)cccc32)c1` [1-(3-methoxy-benzenesulfonyl)-4-piperazin-1-yl-1H-indole], the inhibition constant Ki was 0.372 nM.

As to `COc1ccc(S(=O)(=O)n2ccc3c(N4CCNCC4)cccc32)cc1` [1-(4-Methoxy-benzenesulfonyl)-4-piperazin-1-yl-1H-indole], the inhibition constant Ki is 0.447 nM.

On to `O=S(=O)(c1ccc(Cl)cc1)n1ccc2c(N3CCNCC3)cccc21` [1-(4-chloro-benzenesulfonyl)-4-piperazin-1-yl-1H-indole], for which the Ki was 0.537 nM.

Consider `CN1CCN(c2cccc3c2ccn3S(=O)(=O)c2ccc(F)cc2)CC1` [1-(4-fluoro-benzenesulfonyl)-4-(4-methyl-piperazin-1-yl)-1H-indole], for which the inhibitory constant (Ki) was 0.832 nM.

With `CS(=O)(=O)c1ccc(S(=O)(=O)n2ccc3c(N4CCNCC4)cccc32)cc1` [1-(4-methanesulfonyl-benzenesulfonyl)-4-piperazin-1-yl-1H-indole], the inhibitory constant (Ki) is 42.7 nM.

On to `CC(C)(C)c1ccc(S(=O)(=O)n2ccc3c(N4CCNCC4)cccc32)cc1` [1-(4-ter-butyl-benzenesulfonyl)-4-piperazin-1-yl-1H-indole], for which the Ki was 3.55 nM.

In the case of `O=S(=O)(c1cnc(Cl)c(Br)c1)n1ccc2c(N3CCNCC3)cccc21` [1-(5-bromo-6-chloro-pyridine-3-sulfonyl)-4-piperazin-1-yl-1H-indole], the inhibition constant (Ki) is 5.62 nM.

Take `O=S(=O)(c1cccc2ccccc12)n1ccc2c(N3CCNCC3)cccc21` [1-(Naphthalene-1-sulfonyl)-4-piperazin-1-yl-1H-indole]: the Ki was 0.158 nM.

For `CC(C)CS(=O)(=O)c1cccc(S(=O)(=O)n2ccc3c(N4CCNCC4)cccc32)c1` [1-[3-(2-methyl-propane-1-sulfonyl)-benzenesulfonyl]-4-piperazin-1-yl-1H-indole], the Ki is 1.91 nM.

Consider `O=S(=O)(c1ccccc1)n1cc(Br)c2c(N3CCNCC3)cccc21` [1-benzenesulfonyl-3-bromo-4-piperazin-1-yl-1H-indole], for which the Ki is 0.123 nM.

As to `N#Cc1cccc(S(=O)(=O)n2ccc3c(N4CCNCC4)cccc32)c1` [3-(4-piperazin-1-yl-indole-1-sulfonyl)-benzonitrile], the inhibition constant Ki is 1.12 nM.

As to `O=S(=O)(c1cccc(C(F)(F)F)c1)n1ccc2c(N3CCNCC3)cccc21` [4-piperazin-1-yl-1-(3-trifluoromethyl-benzenesulfonyl)-1H-indole], the Ki is 0.2 nM.

With `O=S(=O)(c1cccs1)n1ccc2c(N3CCNCC3)cccc21` [4-piperazin-1-yl-1-(thiophene-2-sulfonyl)-1H-indole], the inhibition constant (Ki) was 0.447 nM.

For `CCCS(=O)(=O)c1cccc(S(=O)(=O)n2ccc3c(N4CCNCC4)cccc32)c1` [4-piperazin-1-yl-1-[3-(propane-1-sulfonyl)-benzenesulfonyl]-1H-indole], the Ki was 1.55 nM.

In the case of `O=S(=O)(NC1CC1)c1cccc(S(=O)(=O)n2ccc3c(N4CCNCC4)cccc32)c1` [N-cyclopropyl-3-(4-piperazin-1-yl-indole-1-sulfonyl)-benzenesulfonamide], the inhibitory constant (Ki) is 1.26 nM.

Broadly, the pKi is the Ki on a negative log10 scale, so that one unit is a factor of ten. As to `CN(C)S(=O)(=O)c1cccc(S(=O)(=O)n2ccc3c(N4CCNCC4)cccc32)c1` [NN-dimethyl-3-(4-piperazin-1-yl-indole-1-sulfonyl)-benzenesulfonamide], the negative-log Ki (pKi) is reported as 8.69.

System in another data set: not given
Experiment: not given
Settings: not given
One may read the melting point as the temperature of the solid-liquid transition. Take `O=S(=O)(c1cccc(Br)c1)n1ccc2c(N3CCNCC3)cccc21` (as salt: hydrochloride): the melting point fell in the range of 158 to 159 °C.

Consider `O=S(=O)(c1cc(Cl)cc(Cl)c1)n1ccc2c(N3CCNCC3)cccc21` (as salt: hydrochloride) [1-(3,5-Dichloro-benzenesulfonyl)-4-piperazin-1-yl-1H-indole], for which the melting point was 156 to 157 °C.

`CCS(=O)(=O)c1cccc(S(=O)(=O)n2ccc3c(N4CCNCC4)cccc32)c1` (as salt: hydrochloride) [1-(3-ethanesulfonyl-benzenesulfonyl)-4-piperazin-1-yl-1H-indole] yielded a melting point of 166 to 167 °C.

Consider `CN1CCN(c2cccc3c2ccn3S(=O)(=O)c2ccc(F)cc2)CC1` (as salt: hydrochloride) [1-(4-fluoro-benzenesulfonyl)-4-(4-methyl-piperazin-1-yl)-1H-indole], for which the melting point lay within 151 to 152 °C.

Take `O=S(=O)(c1ccc(F)cc1)n1ccc2c(N3CCNCC3)cccc21` (as salt: hydrochloride) [1-(4-fluoro-benzenesulfonyl)-4-piperazin-1-yl-1H-indole]: the melting point was 203 to 204 °C.

For `O=S(=O)(c1ccccc1)n1cc(Br)c2c(N3CCNCC3)cccc21` (as salt: hydrochloride) [1-benzenesulfonyl-3-bromo-4-piperazin-1-yl-1H-indole], the melting point is 304 to 305 °C.

`O=S(=O)(c1cccc(C(F)(F)F)c1)n1ccc2c(N3CCNCC3)cccc21` (as salt: hydrochloride) [4-piperazin-1-yl-1-(3-trifluoromethyl-benzenesulfonyl)-1H-indole] showed a melting point of 256 to 257 °C.

For `O=S(=O)(c1c(F)cccc1F)n1ccc2c(N3CCNCC3)cccc21` (as salt: trifluoroacetate), the melting point lay within 223 to 224 °C.

`Cn1cnc(S(=O)(=O)n2ccc3c(N4CCNCC4)cccc32)c1` (as salt: trifluoroacetate) gave a melting point of 230 to 231 °C.

With `O=S(=O)(c1cc(Cl)ccc1Cl)n1ccc2c(N3CCNCC3)cccc21` (as salt: trifluoroacetate) [1-(2,5-dichloro-benzenesulfonyl)-4-piperazin-1-yl-1H-indole], the melting point is 237 to 238 °C (dec.).

For the molecule `COc1ccc(OC)c(S(=O)(=O)n2ccc3c(N4CCNCC4)cccc32)c1` (as salt: trifluoroacetate) [1-(2,5-dimethoxy-benzenesulfonyl)-4-piperazin-1-yl-1H-indole], the melting point is 245 to 246 °C (dec.).

With `CS(=O)(=O)c1ccc(F)c(S(=O)(=O)n2ccc3c(N4CCNCC4)cccc32)c1` (as salt: trifluoroacetate) [1-(2-fluoro-5-methanesulfonyl-benzenesulfonyl)-4-piperazin-1-yl-1H-indole], the melting point was 172 to 173 °C (dec.).

`CS(=O)(=O)c1ccccc1S(=O)(=O)n1ccc2c(N3CCNCC3)cccc21` (as salt: trifluoroacetate) [1-(2-methanesulfonyl-benzenesulfonyl)-4-piperazin-1-yl-1H-indole] gave a melting point of 171 °C.

In the case of `O=S(=O)(c1cccc(F)c1)n1ccc2c(N3CCNCC3)cccc21` (as salt: trifluoroacetate) [1-(3-fluoro-benzenesulfonyl)-4-piperazin-1-yl-1H-indole], the melting point is 227 to 228 °C (dec.).

As to `COc1cccc(S(=O)(=O)n2ccc3c(N4CCNCC4)cccc32)c1` (as salt: trifluoroacetate) [1-(3-methoxy-benzenesulfonyl)-4-piperazin-1-yl-1H-indole], the melting point is 221 °C (dec.).

The record behind these values is US6790848B2, “4-piperazinylindole derivatives with 5-HT6 receptor affinity” (Syntex (U.S.A.) LLC, priority 2001, dated 2004).
